Source: PubChem BioAssay AID504745 (National Center for Advancing Translational Sciences (NCATS), 2011)

Tested on: Caco-2 bidirectional permeability, efflux ratio, LC-MS/MS
Experiment: Inhibitors of N370S glucocerebrosidase as a Potential Chaperone Treatment of Gaucher Disease: Efflux Ratio Profiling
Conditions: stronger effect = lower value
Text: Glucocerebrosidase (GC) catalyzes the hydrolysis of beta-glucocerebroside to glucose and ceramide in lysosomes. Mutations in the glucocerebrosidase gene result in Gaucher disease, an autosomal recessive lysosomal storage disorder. Many of the mutations encountered in patients with Gaucher disease are missense alterations that may cause misfolding, decreased stability and/or mistrafficking of this lysosomal protein. […] These inhibitors include iminosugar analogs and three non-iminosugar inhibitors identified from a previous HTS of 62,000 compounds with the wild type recombinant enzyme. After further testing a probe has been identified and was characterized though AMDE tests. This bioassays provides profiling data on Caco-2 cell permeability of leads compounds developed for the HPGD project. This in vitro model is often predictive of in vivo efflux of the compound by measuring the ratio of transport in and out the plasma membrane of the Caco2-cell line. NIH Chemical Genomics Center [NCGC] NIH Molecular Libraries Probe Production Centers Network [MLPCN] MLPCN Grant: MH086442-01 Assay Submitter (PI): Wei Zheng
1. […] The T0, LY and T90, LY plates are read by FlexStation 3 at excitation of 485 nm and emission of 535 nm to determine LY permeability. […]

## S=C(NCCCc1cnc[nH]1)NCCCN(Cc1ccc(Cl)c(Cl)c1)c1ccc(Br)cn1
  efflux ratio: 9.9
